Measurements taken from patent US20250090473A1, “Macrophage Targeted Immunotherapeutics” (The General Hospital Corporation, priority 2017, published 2025).
Like-named read-outs stand apart in the source and are kept apart here.

Tests used:
[1] = tested on: murine M2-like macrophages; assay: High-content morphological screening of macrophage re-education (M1 enrichment); format: cell-based; settings: for M1 enrichment in response to drug treatment: variable concentrations, FIG. 5A
Description: Cells were maintained in the indicated medium at 37° C. and 5% CO2 and screened regularly for mycoplasma. RAW 264.7 cells were sourced from ATCC and maintained in Dulbecco's Modified Eagles Medium supplemented with 10% heat inactivated fetal calf serum (Atlanta Biologicals), 100 IU penicillin (Invitrogen), and 100 μg mL^−1 streptomycin (Invitrogen), and […] L-glutamine. The MC38 mouse colon adenocarcinoma cell lines were provided by Mark Smyth (QIMR Berghofer Medical Research Institute) with stable transfection of the H2B-Apple reporter to yield a MC38-H2B-mApple cell line employed in intravital microscopy studies. Murine bone marrow-derived macrophages (BMDMs) were isolated and derived by adaptation of published procedures known to those of skill in the art. Briefly, bone marrow was extracted from the surgically resected femur and tibia of naive C57BL/6 mice, dissociated and passed through a 40 μm strainer, and red blood cells lysed by ammonium chloride (StemCell Tech). Resultant bone marrow cells were plated in either 24-well (Corning 3527, for PCR analysis) or optical-bottom 384-well plates (Thermo Fisher 142761, for image analysis) at 1×10^6 cells mL^−1 in Iscove's Modified Dulbecco's Medium supplemented with 10% heat inactivated fetal calf serum, 100 IU penicillin, 100 μg ml^−1 streptomycin (Invitrogen) and 10 ng mL^−1 recombinant murine M-CSF (PeproTech, 315-02); media was replenished every two days. Human macrophages were derived from peripheral blood mononuclear cells isolated using Ficoll-Paque PLUS (GE Healthcare) gradient separation and derived in the presence of 50 ng mL^−1 recombinant human M-CSF (PeproTech, 300-25). Cell proliferation was assessed by PrestoBlue (Fisher) following manufacturer's protocols.
For morphological analysis, media was replenished with M-CSF-free media on day 7 followed by drug dosing (Table 1).
After 48 hours, cells were fixed with formaldehyde (30 min, 37° C.) and stained for actin (5.0 μg mL^−1 DyLight 554 Phalloidin, Cell Signaling Technology), cell membrane (5.0 μg mL^−1 Alexa Fluor 647 wheat germ agglutinin, Thermo Fisher) and nuclei (DAPI, Invitrogen) for 25 min at room temperature. Plates were washed by PBS prior to imaging on a custom Olympus-based automated high-content screening microscope. Four images were acquired per well in a 2×2 grid, imported into CellProfiler (Broad Institute) for pre-processing and segmentation (Table 2).
Computational cell classification was performed in CellProfiler Analyst (Broad Institute) by random forest assignment. Training data (examples provided, Supplementary Figure S1) consisted of approximately 50 healthy cells each representing undifferentiated (M0), M1-like, or M2-like phenotypes. The fast gentle algorithm was trained on the selected cells for […] determination of weights and thresholds for cell shape features. The resulting set of parameters was used to score all other images. The enrichment score for M1 cells was output back into the database and imported into KNIME to generate per-well and per-treatment averages.
Cell morphology was used as an integrated biomarker of cell function, including as an indicator for age and immunosuppressive capacity. The method that was used uses high-content image analysis via computational automated segmentation to extract features of single cells such as cellular radius, axis lengths, compactness, and eccentricity which are associated with the polarization state. […]

[2] = tested on: M2-like (IL-4 treated) murine macrophages; assay: qPCR transcriptional analysis of M2-like (IL-4 treated) murine macrophages; format: cell-based; settings: Mus musculus, Macrophage, M2-like macrophages cultured with R848, 24 hours, given as logIC50
Description: For transcriptional analysis, derived murine macrophages were treated with 10 ng mL^−1 recombinant mouse IL-4 (PeproTech 214-14) for 24 hours to induce an M2-like polarization state and subsequently dosed with fresh media supplemented by pharmacologic drugs at the prescribed concentrations. Macrophages treated only with IL-4 (10 ng mL^-1) or LPS (100 ng mL^-1) and IFNg (50 ng mL^-1) served as internal controls for M2-like and M1-like transcription profiles, respectively. […] Data are presented as the gene expression (fold change relative to hprt or β-actin, as indicated) or M1-likeness, calculated as described in Example 2, FIG. 20B. […]
A subset of drugs having a range of M1 enrichment activities were further scrutinized by qPCR analysis of representative M1-like (nos2, il12, and cd80) and M2-like (mrc1, arg1) transcripts. FIG. 20A is a set of two bar graphs depicting gene expression of M1-like and M2-like macrophages, expressed as fold change relative to hprt. […] M1-likeness is determined by summing the changes in expression for each gene resulting from treatment, normalized to the range of expression observed in the training data. […]

Row | Compound | EC50 ([1]; Mus musculus, Macrophage, dose response, 48 hours) | IC50 ([1]; Mus musculus, Macrophage, given as logIC50) | IC50 ([2]; read-out: logIC50 of IL12 transcription (converted)) | IC50 ([2]; read-out: logIC50 of TLR7 expression (converted)) | M1 enrichment in response to drug treatment [1]
1 | CCOCc1nc2c(N)nc3ccccc3c2n1CC(C)(C)O [R848, resiquimod] | 14.1 nM | 14.5 nM | 398 nM | 7.24 nM | 
2 | CCCN(CCC)C(=O)C1=Cc2ccc(-c3ccc(C(=O)N4CCCC4)cc3)cc2N=C(N)C1 [motolimod] |  |  |  |  | M1 enrichments which were as pronounced as standard M1 induction by LPS and IFNγ
3 | CCCCOc1nc(N)c2c(n1)N(Cc1cccc(CN3CCCC3)c1)CC(=O)N2 [GS9620] |  |  |  |  | M1 enrichments which were as pronounced as standard M1 induction by LPS and IFNγ
4 | COc1ccc(COc2ccc(Cc3cnc(N)nc3N)cc2OC)cc1 [GW2580] |  |  |  |  | exception
